According to patent publication US6403602B1 (priority 1997, dated 2002):
“Also recorded” adds a separate entry of the source. Structures can show the parent of a compound that is named as a salt. Where two headings read alike, the source gives them in different places.

Experiments:
[1] = biological target: T1, delta receptors (Cavia porcellus, UniProt A0A286XTF2); assay: biochemical; type: binding, guinea pig
T1 construct: The brains were then homogenized in 50 mM Tris HCl, buffer pH 7.7, using a Polytron; from tissue; host or cells: guinea pig brain homogenate (membrane pellet)

[2] = system: κ2 sites; type: binding, guinea pig
[3] = biological target: kappa3 receptors; type: binding, guinea pig; details: for Ki: read-out: Ki κ3 [^3H]NalBzoH
[4] = system: electrically stimulated guinea pig ileum; assay: tissue or blood; type: cell-based
[5] = system: electrically stimulated mouse vas deferens; assay: tissue or blood; type: cell-based
[6] = system: nociception (tail-flick); assay: Tail-flick test after subcutaneous administration; details: rat tail-flick, sc, dose equimolar to 5 mg/kg morphine
[7] = system: nociception (tail-flick); assay: Tail-flick test after intracerebroventricular administration; type: in vivo; details: rat tail-flick
[8] = biological target: T2, kappa1 sites (Cavia porcellus, UniProt P41144); assay: biochemical; type: binding, guinea pig
T2 construct: The brains were then homogenized in 50 mM Tris HCl, buffer pH 7.7, using a Polytron; from tissue; host or cells: guinea pig brain homogenate (membrane pellet)

[9] = biological target: mu opioid receptors (Cavia porcellus, UniProt A0ACM8Q262); type: binding, guinea pig; details: for Ki: read-out: Ki μ [^3H]DAMGO
[10] = system: mu receptors; type: cell-based, guinea pig
[11] = biological target: T3, kappa receptors (Cavia porcellus, UniProt P41144); type: cell-based, guinea pig
T3 construct: The longitudinal muscle with the myenteric plexus attached was gently separated from the underlying circular muscle; from tissue; host or cells: guinea pig ileum longitudinal muscle with myenteric plexus

[12] = biological target: T4, κ opioid receptor (Cavia porcellus, UniProt P41144); assay: Antagonist activity (pA2) at κ in the functional assays; type: cell-based
T4 construct: from tissue; host or cells: organ-bath tissue, probably guinea pig ileum

[13] = biological target: T5, δ opioid receptor (Mus musculus, UniProt P32300); assay: Antagonist activity (pA2) at δ in the functional assays; type: cell-based
T5 construct: from tissue; host or cells: organ-bath tissue, probably mouse vas deferens

[14] = read-out: Ki δ, experiment done with [^3H]DPDPE
[15] = read-out: Guinea Pig Ileum IC50

Chain of mu opioid receptors (A0ACM8Q262 1-400): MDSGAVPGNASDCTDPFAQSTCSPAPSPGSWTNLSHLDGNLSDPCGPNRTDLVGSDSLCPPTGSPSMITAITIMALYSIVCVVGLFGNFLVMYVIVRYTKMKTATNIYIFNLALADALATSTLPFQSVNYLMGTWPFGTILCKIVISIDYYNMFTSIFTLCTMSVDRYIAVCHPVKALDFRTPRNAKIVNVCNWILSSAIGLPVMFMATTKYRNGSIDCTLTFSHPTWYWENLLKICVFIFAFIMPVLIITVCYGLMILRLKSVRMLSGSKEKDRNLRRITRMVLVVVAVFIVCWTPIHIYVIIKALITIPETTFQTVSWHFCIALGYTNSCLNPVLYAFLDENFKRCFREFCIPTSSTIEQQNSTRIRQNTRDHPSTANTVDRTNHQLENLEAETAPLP
T1 sequence (A0A286XTF2 1-366): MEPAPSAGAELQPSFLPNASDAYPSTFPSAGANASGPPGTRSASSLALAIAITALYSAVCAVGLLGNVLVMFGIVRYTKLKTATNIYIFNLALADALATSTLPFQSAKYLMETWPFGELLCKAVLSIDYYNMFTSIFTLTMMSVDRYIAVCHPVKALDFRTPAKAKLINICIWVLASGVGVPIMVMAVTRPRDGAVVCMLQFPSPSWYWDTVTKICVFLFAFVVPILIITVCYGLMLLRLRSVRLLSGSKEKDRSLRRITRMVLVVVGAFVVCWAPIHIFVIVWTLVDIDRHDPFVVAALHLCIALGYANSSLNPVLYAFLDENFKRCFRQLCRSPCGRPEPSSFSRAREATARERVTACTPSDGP
T2 sequence (P41144 whole entry): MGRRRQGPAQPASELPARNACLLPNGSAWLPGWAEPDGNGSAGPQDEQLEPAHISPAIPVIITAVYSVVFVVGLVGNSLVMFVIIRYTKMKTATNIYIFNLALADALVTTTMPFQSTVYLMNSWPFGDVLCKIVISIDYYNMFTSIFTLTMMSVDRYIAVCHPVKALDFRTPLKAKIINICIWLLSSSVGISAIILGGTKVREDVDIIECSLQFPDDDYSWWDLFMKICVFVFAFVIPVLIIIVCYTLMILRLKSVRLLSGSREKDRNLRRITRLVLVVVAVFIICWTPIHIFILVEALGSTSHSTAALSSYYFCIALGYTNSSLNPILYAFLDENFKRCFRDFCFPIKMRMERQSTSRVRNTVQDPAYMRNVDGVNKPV
T3 sequence (P41144 whole entry): as above
T5 sequence (P32300 whole entry): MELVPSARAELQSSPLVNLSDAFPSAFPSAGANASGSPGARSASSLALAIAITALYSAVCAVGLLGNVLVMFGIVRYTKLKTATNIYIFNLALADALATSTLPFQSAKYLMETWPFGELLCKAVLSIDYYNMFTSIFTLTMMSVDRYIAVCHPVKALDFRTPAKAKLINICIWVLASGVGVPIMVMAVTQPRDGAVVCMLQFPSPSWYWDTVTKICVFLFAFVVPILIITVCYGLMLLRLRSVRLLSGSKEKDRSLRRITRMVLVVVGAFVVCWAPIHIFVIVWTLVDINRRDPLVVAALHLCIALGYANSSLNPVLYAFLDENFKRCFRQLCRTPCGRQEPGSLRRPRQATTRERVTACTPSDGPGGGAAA
T4 sequence (P41144 whole entry): as the sequence (P41144 whole entry) above

Molecule	Ki [1] [nM]	IC50 [2] [nM]	Ki [3] [nM]	Ki [1, 14] [nM]	Ki ([8]; read-out: Ki κ1 [^3H]U69,593) [nM]	Ki [9] [nM]	Guinea Pig Ileum DR with CTAP [10]	Guinea Pig Ileum DR with Nor-BNI [11]	other results
CC(=O)Oc1ccc2c3c1O[C@H]1[C@@H](OS(=O)(=O)[O-])C=C[C@H]4[C@@H](C2)[N+](C)(C)CC[C@@]341 [NIDA # 20,269, 3-O-Acetyl-N-methylmorphinium-6-O-sulfate]	842	> 10000	400	–	–	–	–	–	Guinea pig ileum, result in words [4]: no activity; also recorded: lacks activity; Mouse vas deferens, result in words [5]: lacks activity; inhibition at 200 µM ([5]; Mus musculus, read-out: Mouse vas deferens maximum inhibition): 20%; analgesic activity in words ([6]; listed as MM3A6S): devoid of any analgesic properties; also recorded: inactive
CN1CC[C@]23c4c5ccc(O)c4O[C@H]2[C@@H](O)C=C[C@H]3[C@H]1C5 [Morphine, morphine]	–	–	–	–	–	–	–	–	onset of analgesic response after icv injection ([7]; higher dose 23.6 μg/4 μl/rat): 6 min
c1ccc(C2(N3CCCCC3)CCCCC2)cc1 [PCP-HCl]	–	> 10000	> 10000	> 10000	> 10000	> 10000	–	–	–
C=CCN1CC[C@@]2(C)c3cc(O)ccc3CC1[C@@H]2C.Cl (single isomer, unassigned; (-)) [(−) SKF 10,047-HCl]	–	132	–	3.8	0.3	0.7	0.44 ± 0.02	273.10	IC50 [4, 15]: 10.5 nM; Guinea Pig Ileum Ke of Nor-BNI [11]: 0.08 ± 0.01
(−) Pentazocine-succinate	–	424	12.4	–	4.4	5.7	0.73 ± 0.38	6.10	IC50 [4, 15]: 170 nM; Guinea Pig Ileum Ke of Nor-BNI [11]: 4.00 ± 0.8
CN1CC[C@]23c4c5ccc(O)c4O[C@H]2[C@@H](OS(=O)(=O)O)C=C[C@H]3[C@H]1C5 [NIDA # 20,266, Morphine-6-O-Sulfate]	18	> 10000	6.3	–	–	–	5.00 ± 2.16	0.87 ± 0.06	Guinea Pig Ileum Ke of CTAP [10]: 29.18 ± 15.7; Guinea Pig Ileum Ratio (CTAP) [10]: 0.663; affinity to delta receptors in words [1]: greater affinity than that of morphine; affinity to kappa3 receptors in words [3]: greater affinity than that of morphine; selectivity for kappa3 receptors, greater than morphine [3]: 2.2 fold; Guinea pig ileum, result in words [4]: inhibited electrically induced twitches; IC50 ([4]; Cavia porcellus, read-out: Guinea Pig Ileum IC50 (nM)): 67 ± 12.1 nM; Ki [8]: 1190 nM; binding to kappa1 sites in words [8]: weakly; duration of maximal analgesia ([7]; icv, molar dose equivalent to the lower dose of morphine): 70 min; affinity to mu receptors in words [9]: greater affinity than that of morphine; selectivity for mu-receptors, greater than morphine [9]: 3 fold; analgesic activity in words [6]: maximal analgesic effect similar to morphine; duration of maximal analgesic effect [6]: over 3 hours
Oc1ccc2c3c1O[C@H]1c4[nH]c5ccccc5c4C[C@@]4(O)[C@@H](C2)N(CC2CC2)CC[C@]314 [Naltrindole]	–	540	12.4	–	–	–	–	–	Ki [8]: 7.8 nM; Kb [12]: 24.5 nM; Kb [13]: 0.012 nM
c1csc(C2(N3CCCCC3)CCCCC2)c1 [TCP-HCl]	–	> 10000	> 10000	> 10000	2040	2200	–	–	–
C=CCN1CC[C@@]2(C)c3cc(O)ccc3C[C@@H]1[C@@H]2C [(+) SKF 10,047-HCl]	–	> 10000	> 1000	> 10000	2890	2120	–	–	–
Oc1ccc2c3c1O[C@H]1c4[nH]c5c(c4C[C@@]4(O)[C@@H](C2)N(CC2CC2)CC[C@]314)C[C@@]1(O)[C@H]2Cc3ccc(O)c4c3[C@@]1(CCN2CC1CC1)[C@H]5O4 [Nor-BNI (HCl)2, nor-binaltorphimine]	6.3	37.5	15	–	0.3	–	–	–	–
